# Measurements reported in patent US20260041744A1, “Methods for Treating Pompe Disease” (Amicus Therapeutics, Inc., priority 2022, published 2026).
# Legend:
# Assay type in all cases: in vivo, human
# [1] = system: adult subjects with late-onset Pompe disease (LOPD); assay: Study ATB200-03 (PROPEL): 6-minute walk test (6MWD)
# Protocol: Efficacy Analyses. The primary efficacy endpoint (i.e., change from baseline to Week 52 in 6MWD) was analyzed using a parametric analysis of covariance (ANCOVA) model to compare between the new treatment and the control. […] However, the baseline 6MWD could not be used in the model twice (both as a continuous and a categorical variable) due to the expected high point biserial correlation between them. Thus, the 6MWD continuous variable remained in the model but the categorical 6MWD was removed.
# (§1) The test for the primary endpoint was conducted first at the 1-sided 0.025 significance level, and if significant, the ordered key secondary endpoints were similarly tested at the same significance level. The statistical significance of the key secondary endpoints was interpreted following a hierarchical testing order, each at the 1-sided alpha level of 0.025. […] Primary analyses of efficacy were performed using the mixed-effect model for repeated measures (MMRM) for 6MWD in Intent-to-treat Observed Population (ITT) that includes all available, observed data without any missing data imputation (ITT-OBS) and analysis of covariance (ANCOVA) for all other endpoints in the Intent-to-Treat-Last Observation Carried Forward (ITT-LOCF) Population. A nonparametric randomization based ANCOVA was specified as the first sensitivity analysis for 6MWD and FVC. […] For the purposes of data presentation in this document, 2-sided p-values are reported hereafter, except as otherwise noted.
# Analysis of 6MWD was performed using an MMRM model with actual time point of assessments on the ITT-OBS and excluding the outlier Subject 4005-2511. Specifically, the dependent variable is the change from baseline in the assessment. Independent variables include the fixed, categorical effects of treatment, ERT status, and gender, as well as the fixed, continuous covariates of time of assessment (days), baseline 6MWD, baseline age, baseline weight, and baseline height, and the treatment-by-time interaction. A random intercept of subject is also included in the model. Change from baseline at Week 52 for each treatment group and the difference between treatment groups were then estimated with the LS means at Day 364, together with the 95% CIs.
# [2] = system: adult subjects with late-onset Pompe disease (LOPD); assay: Study ATB200-03 (PROPEL): MMT lower extremity score; settings: for CHG to Week 52 in MMT lower extremity score, LS Mean: MMRM, actual time point of assessments; for MMT lower extremity score CHG, LS means (SE): Week 52, ANCOVA
# Protocol: as §1
# [3] = system: adult subjects with late-onset Pompe disease (LOPD); assay: Study ATB200-03 (PROPEL): PROMIS-Fatigue; settings: for CHG to Week 52 in PROMIS-Fatigue total score, LS Mean: MMRM, actual time point of assessments, decrease indicates improvement; for PROMIS-Fatigue Short Form 8a total score CHG, LS means (SE): Week 52, ANCOVA
# Protocol: as §1
# [4] = Baseline, ITT, ERT-naïve Population excluding Subject 4005-2511
# [5] = Week 52-LOCF, ERT-experienced Population
# [6] = Week 52-LOCF, ITT excluding Subject 4005-2511
# [7] = Week 52-LOCF, ITT, ERT-naïve Population excluding Subject 4005-2511
# [8] = Week 52-Observed, ERT-experienced Population
# [9] = Week 52-Observed, ITT excluding Subject 4005-2511
# [10] = Week 52-Observed, ITT, ERT-naïve Population excluding Subject 4005-2511
# [11] = ERT-naïve excluding Subject 4005-2511
# [12] = ITT-LOCF, ERT-naïve Population excluding Subject 4005-2511
# [13] = ITT-OBS excluding Subject 4005-2511 (overall)
# [14] = ITT-OBS excluding Subject 4005-2511, ERT-naïve Subjects
# [15] = ITT-OBS, ERT-experienced Subjects
# [16] = Week 52-LOCF, ERT-naïve Population excluding Subject 4005-2511
# [17] = ITT-LOCF excluding Subject 4005-2511
# [18] = ITT-LOCF, ERT-experienced Population
substance,measurement,setting,value
alglucosidase alfa [reference compound],"6MWD Absolute Value, Mean",[1]; [4],420.94 meters
same,"6MWD Absolute Value, Median",[1]; [4],385.50 meters
same,6MWD CFBL at Week 52,[1]; ERT switch (ERT-experienced) population,0.0 m
same,6MWD CFBL at Week 52,"[1]; ERT switch (ERT-experienced) population, listed as Alglucosidase alfa",0.0 (7.2) m
same,6MWD CFBL at Week 52,[1]; ERT treatment naive population,38 m
same,6MWD CFBL at Week 52,"[1]; ERT treatment naive population, listed as Alglucosidase alfa",+38.3 (11.1) m
same,mean (SD) change in 6MWD from baseline to Week 52,[1]; ERT-experienced Population (n=95),0.7 (39.84) meters
same,mean (SD) change in 6MWD from baseline to Week 52,[1]; ERT-naïve Population excluding Subject 4005-2511 (n=27),38.3 (29.32) meters
same,mean (SD) change in 6MWD from baseline to Week 52,[1]; ITT population excluding Subject 4005-2511,8.0 (40.56) meters
same,"6MWD LS mean improvement from baseline, MMRM with actual time point of assessments","[1]; ITT-OBS excluding Subject 4005-2511, Week 52",8.3 m
same,"Change in 6MWD baseline to Week 52, LS means (SE) from MMRM","[1]; ITT-OBS, ERT-naïve Population excluding Subject 4005-2511",39.47 (17.15) meters
same,"CHG to week 52 in 6MWD, LS Mean (95% CI)","[1]; MMRM, actual time point of assessments, ITT-OBS Population excluding Subject 4005-2511 (overall)","8.3 (−2.2, 18.8) m"
same,"CHG to Week 52 in 6MWD, LS Mean","[1]; MMRM, actual time point of assessments, ITT-OBS excluding Subject 4005-2511, ERT-naïve Subjects",52.7
same,"CHG to Week 52 in 6MWD, LS Mean","[1]; MMRM, actual time point of assessments, ITT-OBS, ERT-experienced Subjects",0.9
same,"6MWD Absolute Value, Mean (SD)",[1]; [5],334.60 (129.506) meters
same,"6MWD Absolute Value, Median",[1]; [5],339.03 meters
same,"6MWD CHG, Mean (SD)",[1]; [5],−0.02 (39.345) meters
same,"6MWD CHG, Median",[1]; [5],−8.93 meters
same,"6MWD Absolute Value, Mean",[1]; [6],358.19 meters
same,"6MWD Absolute Value, Median",[1]; [6],370.00 meters
same,"6MWD CHG, Mean",[1]; [6],7.24 meters
same,"6MWD CHG, Median",[1]; [6],1.40 meters
same,"6MWD Absolute Value, Mean",[1]; [7],459.28 meters
same,"6MWD Absolute Value, Median",[1]; [7],446.50 meters
same,"6MWD CHG (change from baseline), Mean",[1]; [7],38.34 meters
same,"6MWD CHG (change from baseline), Median",[1]; [7],33.50 meters
same,"6MWD Absolute Value, Mean (SD)",[1]; [8],335.66 (131.666) meters
same,"6MWD Absolute Value, Median",[1]; [8],348.00 meters
same,"6MWD CHG, Mean (SD)",[1]; [8],0.70 (39.841) meters
same,"6MWD CHG, Median",[1]; [8],−8.65 meters
same,"6MWD Absolute Value, Mean",[1]; [9],359.70 meters
same,"6MWD Absolute Value, Median",[1]; [9],371.75 meters
same,"6MWD CHG, Mean",[1]; [9],8.02 meters
same,"6MWD CHG, Median",[1]; [9],3.15 meters
same,"6MWD Absolute Value, Mean",[1]; [10],459.28 meters
same,"6MWD Absolute Value, Median",[1]; [10],446.50 meters
same,"6MWD CHG (change from baseline), Mean",[1]; [10],38.34 meters
same,"6MWD CHG (change from baseline), Median",[1]; [10],33.50 meters
same,"LS Mean (SE), Change from Baseline in 6MWD","[1]; Week 52, ANCOVA, ITT-LOCF excluding outliers with externally studentized residuals >3",6.95 (6.951) meters
same,"6MWD CHG, LS mean (SE)","[1]; Week 52, MMRM, ITT-OBS excluding Subject 4005-2511",7.10 (7.043) meters
same,"6MWD CHG, LS means (SE)","[1]; Week 52, MMRM, ITT-OBS, ERT-experienced Population",0.59 (7.569) meters
same,6MWD CFBL at Week 52,[1]; overall ERT switch + ERT naïve population,7 m
same,6MWD CFBL at Week 52,"[1]; overall ERT switch + ERT naïve population, listed as Alglucosidase alfa",+7.2 (6.6) m
same,6MWD CFBL at Week 52,"[1]; overall ERT switch + ERT naïve population, listed as alglucosidase alfa/placebo",7 m
same,"MMT Lower Extremity Score Absolute Value, Mean",[2]; [4],33.57
same,"MMT lower extremity score Absolute Value, Median",[2]; [4],32.00
same,mean (SD) change in MMT lower extremity score from baseline to Week 52,[2]; ERT-experienced Population,0.9 (2.81)
same,mean (SD) change in MMT lower extremity score from baseline to Week 52,[2]; [11],1.0 (1.53)
same,"Change in MMT lower extremity score baseline to Week 52, LS means (SE) from ANCOVA",[2]; [12],0.69 (1.013)
same,"CHG to Week 52 in MMT lower extremity score, LS Mean",[2]; [13],0.7
same,"CHG to Week 52 in MMT lower extremity score, LS Mean",[2]; [14],−0.0
same,"CHG to Week 52 in MMT lower extremity score, LS Mean",[2]; [15],0.9
same,"MMT lower extremity score Absolute Value, Mean (SD)",[2]; [5],26.96 (6.802)
same,"MMT lower extremity score Absolute Value, Median",[2]; [5],28.00
same,"MMT lower extremity score CHG, Mean (SD)",[2]; [5],0.85 (2.811)
same,"MMT lower extremity score CHG, Median",[2]; [5],1.00
same,"MMT Lower Extremity Score Absolute Value, Mean",[2]; [16],34.57
same,"MMT Lower Extremity Score CHG (change from baseline), Mean",[2]; [16],1.00
same,"MMT Lower Extremity Score CHG (change from baseline), Median",[2]; [16],2.00
same,"MMT lower extremity score Absolute Value, Median",[2]; [16],34.00
same,"MMT lower extremity score Absolute Value, Mean (SD)",[2]; [6],28.53 (6.999)
same,"MMT lower extremity score Absolute Value, Median",[2]; [6],29.00
same,"MMT lower extremity score CHG, Mean (SD)",[2]; [6],0.88 (2.579)
same,"MMT lower extremity score CHG, Median",[2]; [6],1.00
same,"MMT lower extremity score CHG, LS means (SE)",[2]; [17],0.68 (0.603)
same,"MMT lower extremity score CHG, LS means (SE)",[2]; [18],0.90 (0.735)
same,mean (SD) change in MMT lower extremity score from baseline to Week 52,[2]; overall population,0.9 (2.58)
same,"PROMIS-Fatigue Short Form 8a Total Score Absolute Value, Median",[3]; [4],24.00
same,"PROMIS-Fatigue Short Form 8a Total Score Absolute Value, Mean","[3]; Baseline, ITT, ERT-naïve Population excluding Subject 4005-2511, score 8 to 40, lower = less fatigue",24.13
same,mean (SD) change in PROMIS-Fatigue total score from baseline to Week 52,[3]; ERT-experienced Population,−0.5 (5.72)
same,mean (SD) change in PROMIS-Fatigue total score from baseline to Week 52,[3]; [11],−5.4 (6.61)
same,"Change in PROMIS-Fatigue total score baseline to Week 52, LS means (SE) from ANCOVA",[3]; [12],−6.28 (2.757)
same,"CHG to Week 52 in PROMIS-Fatigue total score, LS Mean",[3]; [13],−1.7
same,"CHG to Week 52 in PROMIS-Fatigue total score, LS Mean",[3]; [14],−4.9
same,"CHG to Week 52 in PROMIS-Fatigue total score, LS Mean",[3]; [15],−0.7
same,"PROMIS-Fatigue Short Form 8a Total Score Absolute Value, Mean",[3]; [5],19.87
same,"PROMIS-Fatigue Short Form 8a Total Score Absolute Value, Median",[3]; [5],18.00
same,"PROMIS-Fatigue Short Form 8a Total Score CHG, Mean",[3]; [5],−0.50
same,"PROMIS-Fatigue Short Form 8a total score CHG, Median",[3]; [5],0.50
same,"PROMIS-Fatigue Short Form 8a Total Score Absolute Value, Mean",[3]; [16],16.43
same,"PROMIS-Fatigue Short Form 8a Total Score Absolute Value, Median",[3]; [16],15.00
same,"PROMIS-Fatigue Short Form 8a Total Score CHG (change from baseline), Mean",[3]; [16],−7.70
same,"PROMIS-Fatigue Short Form 8a Total Score CHG (change from baseline), Median",[3]; [16],−6.90
same,"PROMIS-Fatigue Short Form 8a Total Score Absolute Value, Median",[3]; [6],18.00
same,"PROMIS-Fatigue Short Form 8a total score Absolute Value, Mean (SD)",[3]; [6],19.41 (6.735)
same,"PROMIS-Fatigue Short Form 8a total score CHG, Mean (SD)",[3]; [6],−1.67 (6.623)
same,"PROMIS-Fatigue Short Form 8a total score CHG, Median",[3]; [6],−1.00
same,"PROMIS-Fatigue Short Form 8a total score CHG, LS means (SE)",[3]; [17],−1.94 (0.901)
same,"PROMIS-Fatigue Short Form 8a total score CHG, LS means (SE)",[3]; [18],−0.79 (0.953)
same,mean (SD) change in PROMIS-Fatigue total score from baseline to Week 52,[3]; overall population,-1.9 (0.90)
